# According to patent US20230100838A1 (Revolution Medicines, Inc., priority 2019, published 2023):
# Tests used:
# [1] = biological target: T1, GDP-loaded K-Ras (1-169) G12D, C51S, C80L, C118S (Homo sapiens, UniProt P01116, C118S/C51S/C80L/G12D); assay: K-Ras G12D(GDP) cross-linking assay (conjugate formation, TOF mass spectrometry); format: binding; design: key: 0: No observed x-linking; +: 0 < x ≤ 20; ++: 20 < x ≤ 40; +++: 40 < x ≤ 100; conditions: Table 5; percent covalently modified K-Ras by MS; room temperature; typical compound conc. 2, 10, 25 μM, endpoints 1 and 24 h
# T1 construct: GDP-loaded K-Ras (1-169) G12D, C51S, C80L, C118S
# Method: (§1) Protocol: K-Ras G12D(GDP) Cross-Linking Assay
# (§2) Note: while the following protocol outlines the procedure for K-Ras G12D(GDP), a person of skill in the art may substitute other Ras proteins, and may also substitute a non-hydrolyzable GTP analog for GDP to study GTP bound Ras protein.
# (§3) GDP-loaded K-Ras (1-169) G12D, C51S, C80L, C118S and GDP-loaded K-Ras (1-169) C51S, C80L, C118S were adjusted to 50 μM in K-Ras assay buffer (12.5 mM HEPES, 75 mM NaCl and 1 mM MgCl2 at pH 7.4). A 5 μL aliquot of each protein solution was added to each well of a 96-well microplate containing 40 μL of assay buffer. Initial compound stocks were prepared in DMSO at 100 times their final assay concentration. Compounds were then diluted 10-fold into K-Ras assay buffer to 10 times their final concentration. A 5 μL aliquot of each diluted compound solution was added to each protein solution in the 96-well microplate to initiate the reaction, which then proceeded at room temperature. Typical final compound concentrations were 2, 10, and 25 μM. At each time point, the reactions were analyzed immediately or quenched with 5 μL of a 5% formic acid solution and kept at 4° C. until analysis. Typical assay endpoints were 1 and 24 h.
# (§4) Data collection took place on an Agilent 6230 TOF Mass Spectrometer. Complete reactions were injected onto a C4 reverse-phase column to separate protein from buffer components prior to entering the mass spectrometer. The proteins were eluted from the column by increasing acetonitrile fraction in the mobile phase and fed directly into the mass analyzer. Initial analysis of raw data took place in Agilent MassHunter BioConfirm software and consisted of deconvolution of multiple protein charge states with the maximum entropy algorithm, with a mass step of 1 Da. The heights of all deconvoluted protein masses were exported for further data analysis. The percent modification of each protein was then determined by calculating the peak height of the covalently modified K-Ras species as a percentage of the sum total of K-Ras protein peak height.
# [2] = biological target: T2, GDP-loaded K-Ras (1-169) C51S, C80L, C118S (Homo sapiens, UniProt P01116, C118S/C51S/C80L); assay: K-Ras WT (GDP) cross-linking assay (conjugate formation, TOF mass spectrometry); format: binding; design: key: 0: No observed x-linking; +: 0 < x ≤ 20; ++: 20 < x ≤ 40; +++: 40 < x ≤ 100; conditions: Table 5; percent covalently modified K-Ras by MS; room temperature; typical compound conc. 2, 10, 25 μM, endpoints 1 and 24 h
# T2 construct: GDP-loaded K-Ras (1-169) C51S, C80L, C118S
# Method: as §1, §2, §3, §4
SMILES,G12D x-linking (%) [1],WT x-linking (%) [2]
"CN1CCC[C@H]1COc1nc2c(c(N3CCN(C(=O)[C@H]4CN4)[C@@H](CC#N)C3)n1)CCN(c1cccc3cccc(Cl)c13)C2 [Example 112, 2-((S)-1-((R)-aziridine-2-carbonyl)-4-(7-(8-chloronaphthalen-1-yl)-2-(((S)-1-methylpyrrolidin-2-yl)methoxy)-5,6,7,8-tetrahydropyrido[3,4-d]pyrimidin-4-yl)piperazin-2-yl)acetonitrile]",++ (20 < x ≤ 40),0
"C#CCCN1CCC[C@H]1COc1nc2c(c(N3CCN(C(=O)[C@H]4CN4)[C@@H](CC#N)C3)n1)CCN(c1cccc3cccc(C)c13)C2 [Example 116, 2-((S)-1-((R)-aziridine-2-carbonyl)-4-(2-(((S)-1-(but-3-yn-1-yl)pyrrolidin-2-yl)methoxy)-7-(8-methylnaphthalen-1-yl)-6,6,7,8-tetrahydropyrldo[3,4-d]pyrimidin-4-yl)piperazin-2-yl)acetonitrile]",+ (0 < x ≤ 20),+ (0 < x ≤ 20)
"COc1ccccc1CN=C=N[C@H]1CCN(c2nc(OC[C@@H]3CCCN3C)nc3c2CCN(c2cccc4cccc(C)c24)C3)C[C@@H]1CC#N [Example 103, 2-((3S,4S)-4-((((2-methoxybenzyl)imino)methylene)amino)-1-(7-(8-methylnaphthalen-1-yl)-2-(((S)-1-methylpyrrolidin-2-yl)methoxy)-5,6,7,8-tetrahydropyrido[3,4-d]pyrimidin-4-yl)piperidin-3-yl)acetonitrile]",+ (0 < x ≤ 20),+ (0 < x ≤ 20)
Cc1cccc2cccc(N3CCc4c(nc(OC[C@@H]5CCCN5C)nc4N4CCN(C(=O)[C@@H]5CN5S(C)(=O)=O)[C@@H](CC#N)C4)C3)c12 (stereo partly shown) [Example 132],+ (0 < x ≤ 20),+ (0 < x ≤ 20)
CN1CCC[C@H]1COc1nc2c(c(N3CCN(C(=O)[C@H]4CN4)[C@@H](CC#N)C3)n1)CCN(c1cc(O)cc3ccccc13)C2 [Example 114],++ (20 < x ≤ 40),0
"CC(=O)N1C[C@H]1CN1CCN(c2nc(OC[C@@H]3CCCN3C)nc3c2CCN(c2cccc4cccc(C)c24)C3)C[C@@H]1CC#N [Example 118, 2-((S)-1-(((R)-1-acetylaziridin-2-yl)methyl)-4-(7-(8-methylnaphthalen-1-yl)-2-(((S)-1-methylpyrrolidin-2-yl)methoxy)-5,6,7,8-tetrahydropyrido[3,4-d]pyrimidin-4-yl)piperazin-2-yl)acetonitrile]",+ (0 < x ≤ 20),+ (0 < x ≤ 20)
CO[C@H]1CCCC[C@@H]1N=C=NC1CCN(c2nc(OC[C@@H]3CCCN3C)nc3c2CCN(c2cccc4cccc(C)c24)C3)CC1 [Example 145],+ (0 < x ≤ 20),+ (0 < x ≤ 20)
CO[C@@H]1CCCC[C@@H]1N=C=NC1CCN(c2nc(OC[C@@H]3CCCN3C)nc3c2CCN(c2cccc4cccc(C)c24)C3)CC1 [Example 146],+ (0 < x ≤ 20),+ (0 < x ≤ 20)
"Cc1cccc2cccc(N3CCc4c(nc(OC[C@@H]5CCCN5C)nc4N4CCN(C[C@H]5CN5)[C@@H](CC#N)C4)C3)c12 [Example 100, 2-((S)-1-(((R)-aziridin-2-yl)methyl)-4-(7-(8-methylnaphthalen-1-yl)-2-(((S)-1-methylpyrrolidin-2-yl)methoxy)-5,6,7,8-tetrahydropyrido[3,4-d]pyrimidin-4-yl)piperazin-2-yl)acetonitrile]",+ (0 < x ≤ 20),+ (0 < x ≤ 20)
Cc1ccnc(C(C)C)c1-n1c(=O)nc(N2[C@H](C)CN(C(=O)[C@H]3CN3)C[C@H]2C)c2cc(F)c(-c3c(O)cccc3F)nc21 [Example 137],0,0
"COCCN1C[C@@H]1C(=O)N1CCN(c2nc(OC[C@@H]3CCCN3C)nc3c2CCN(c2cccc4cccc(C)c24)C3)C[C@@H]1CC#N (stereo partly drawn) [Example 105, 2-((S)-1-((R)-1-(2-methoxyethyl)aziridine-2-carbonyl)-4-(7-(8-methylnaphthalen-1-yl)-2-(((S)-1-methylpyrrolidin-2-yl)methoxy)-5,6,7,8-tetrahydropyrido[3,4-d]pyrimidin-4-yl)piperazin-2-yl)acetonitrile]",++ (20 < x ≤ 40),+ (0 < x ≤ 20)
Cc1ccnc(C(C)C)c1-n1c(=O)nc(N2[C@H](C)CN(C(=O)[C@@H]3CN3)C[C@H]2C)c2cc(F)c(-c3c(O)cccc3F)nc21 [Example 142],+ (0 < x ≤ 20),+ (0 < x ≤ 20)
"Cc1cccc2cccc(N3CCc4c(nc(OC[C@@H]5CCCN5C)nc4N4CCN(C(=O)[C@@H]5CN5C)[C@@H](CC#N)C4)C3)c12 (stereo partly drawn) [Example 107, 2-((S)-1-((S)-1-methylaziridine-2-carbonyl)-4-(7-(8-methylnaphthalen-1-yl)-2-(((S)-1-methylpyrrolidin-2-yl)methoxy)-5,6,7,8-tetrahydropyrido[3,4-d]pyrimidin-4-yl)piperazin-2-yl)acetonitrile]",+ (0 < x ≤ 20),0
COCC1(N=C=N[C@@H]2CCN(c3nc(OC[C@@H]4CCCN4C)nc4c3CCN(c3cccc5cccc(C)c35)C4)C[C@@H]2CC#N)CC1 [Example 153],++ (20 < x ≤ 40),+ (0 < x ≤ 20)
O=C([C@@H]1CN1)N1CCN2c3ncnc4cc(-c5c(O)cccc5F)c(Cl)c(c34)OC[C@@H]2C1 [Example 121],0,0
CN1CCC[C@H]1COc1nc2c(c(N3CCN(C(=O)[C@@H]4CN4)[C@@H](CC#N)C3)n1)CCN(c1cc(O)cc3ccccc13)C2 [Example 115],+ (0 < x ≤ 20),0
"COc1ccccc1CN=C=N[C@H]1C[C@H](Nc2nc(OC[C@@H]3CCCN3C)nc3c2CCN(c2cccc4cccc(C)c24)C3)C1 [Example 104, N-((1R,3S)-3-((((2-methoxybenzyl)imino)methylene)amino)cyclobutyl)-7-(8-methylnaphthalen-1-yl)-2-(((S)-1-methylpyrrolidin-2-yl)methoxy)-5,6,7,8-tetrahydropyrido[3,4-d]pyrimidin-4-amine]",+ (0 < x ≤ 20),+ (0 < x ≤ 20)
O=C([C@@H]1CN1)N1CCN2c3ncnc4cc(-c5c(O)cccc5F)c(Cl)c(c34)OCC[C@@H]2C1 [Example 134],+ (0 < x ≤ 20),+ (0 < x ≤ 20)
Cc1ccnc(C(C)C)c1-n1c(=O)nc(N2[C@@H](C)CN(C(=O)[C@H]3CN3)C[C@@H]2C)c2cc(F)c(-c3c(O)cccc3F)nc21 [Example 136],+ (0 < x ≤ 20),+ (0 < x ≤ 20)
"COC(=O)[C@H]1CN1C(=O)N1CCN(c2nc(OC[C@@H]3CCCN3C)nc3c2CCN(c2cccc4cccc(C)c24)C3)C[C@@H]1CC#N [Example 108, methyl (R)-1-((S)-2-(cyanomethyl)-4-(7-(8-methylnaphthalen-1-yl)-2-(((S)-1-methylpyrrolidin-2-yl)methoxy)-5,6,7,8-tetrahydropyrido[3,4-d]pyrimidin-4-yl)piperazine-1-carbonyl)aziridine-2-carboxylate]",+ (0 < x ≤ 20),+ (0 < x ≤ 20)
"Cc1cccc2cccc(N3CCc4c(nc(OC[C@@H]5CCCN5C)nc4N4CCN(C(=O)[C@@H]5CN5Cc5ccccc5)[C@@H](CC#N)C4)C3)c12 (stereo partly drawn) [Example 97, 2-((S)-1-((S)-1-benzylaziridine-2-carbonyl)-4-(7-(8-methylnaphthalen-1-yl)-2-(((S)-1-methylpyrrolidin-2-yl)methoxy)-5,6,7,8-tetrahydropyrido[3,4-d]pyrimidin-4-yl)piperazin-2-yl)acetonitrile]",+ (0 < x ≤ 20),+ (0 < x ≤ 20)
Cc1cccc2cccc(N3CCc4c(nc(OC[C@@H]5CCCN5C)nc4N4CC[C@H](NC(=O)[C@H]5CN5)[C@@H](CC#N)C4)C3)c12 [Example 126],+ (0 < x ≤ 20),+ (0 < x ≤ 20)
Cc1ccnc(C(C)C)c1-n1c(=O)nc(N2C[C@@H](C)N(C(=O)[C@@H]3CN3)C[C@@H]2C)c2cc(F)c(-c3c(O)cccc3F)nc21 [Example 143],0,0
